Assay results as given in PMC3413639 (PLoS ONE, 2012).
Like-named read-outs stand apart in the source and are kept apart here.

Molecular target: T1, 5-HT1A receptors (Rattus norvegicus, UniProt P19327)
T1 sequence (P19327 1-422): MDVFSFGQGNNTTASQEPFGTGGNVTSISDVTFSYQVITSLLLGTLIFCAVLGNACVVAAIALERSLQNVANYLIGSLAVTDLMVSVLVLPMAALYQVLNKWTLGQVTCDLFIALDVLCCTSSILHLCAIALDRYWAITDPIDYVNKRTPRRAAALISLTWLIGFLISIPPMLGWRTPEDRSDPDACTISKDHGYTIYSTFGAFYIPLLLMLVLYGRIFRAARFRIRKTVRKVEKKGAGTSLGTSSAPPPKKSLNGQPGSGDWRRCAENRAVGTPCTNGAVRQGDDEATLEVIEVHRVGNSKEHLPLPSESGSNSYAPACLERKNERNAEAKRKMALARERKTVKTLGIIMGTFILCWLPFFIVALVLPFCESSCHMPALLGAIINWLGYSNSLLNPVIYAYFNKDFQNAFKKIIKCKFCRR
Assay: Ex vivo ARG, 5-HT1A receptor occupancy after drug administration
Assay type: in vivo
Set-up: Twenty-micrometer-thick frozen brain sections were preincubated; from tissue; host or cells: rat brain (hippocampus and raphe nucleus): frozen sections or living animals
Details: for ED50: rat, po, ex vivo ARG, read-out: ED50 (5-HT1A receptor occupancy)
Procedure: Animals were then killed by decapitation 5 h and 30 min after their administration, respectively. Autoradiographic analysis was performed using procedures similar to in vitro ARG except for incubation temperature (37°C) and times for preincubation (30 sec), incubation (5 min) and rinsing (1 min). […] The doses of these drugs at half-maximal effect (ED50) were determined according to the following relationship: [drawing 2] where D is the dose of the drug.

5-HT1A receptor binding (occupancy), dose-dependent up to (oral, 5 h after administration, irrespective of region): approximately 80%
ED50 (hippocampus): 5.3 mg/kg
ED50 (raphe nucleus): 4.2 mg/kg
Structure (SMILES): Cc1nnc(-c2cc3c(OC[C@@H](O)CN4CCC(c5ccc(Cl)c(Cl)c5)CC4)cccc3o2)o1.Cl [Wf-516, (2S)-1-[4-(3,4-dichlorophenyl)piperidin-1-yl]-3-[2-(5-methyl-1,3,4-oxadiazol-2-yl)benzo[b]furan-4-yloxy]propan-2-ol monohydrochloride]
